Key:
Assay in all cases: combination Emax (second highest fraction inhibited in the dose matrix, 72 h); higher = more inhibition; extreme values may be limits of the assay
[1] = tested on: NCI-H2405 (Lung Adenocarcinoma)
Outline: (§1)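 After 24 hours at 37°C and 5% CO2 in 1536-well plates, cells in DMEM/F12 or RPMI plus 10% FBS received two-drug dose matrices for 72 hours. Viability came from CellTiter-Glo 2.0 luminescence and was scaled as inhibition, anchored at 0 by vehicle wells and at 1 by blank wells. Combination Emax is taken as the second-highest inhibition in the matrix, and Bliss excess as the observed combination effect less EA + EB − EA·EB, with EA and EB the single-agent effects.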

RPMI-7951 (Melanoma) = tested on: RPMI-7951 (Melanoma)
Outline: as §1

[2] = tested on: SCC-3 (B-Cell Non-Hodgkin's Lymphoma)
Outline: as §1

[3] = tested on: BV-173 (Chronic Myelogenous Leukemia)
Outline: as §1

[4] = tested on: SNU-C1 (Colorectal Carcinoma)
Outline: as §1

BT-20 (Breast Carcinoma) = tested on: BT-20 (Breast Carcinoma)
Outline: as §1

[5] = tested on: SCC-9 (Oral Cavity Carcinoma)
Outline: as §1

NB7 (Neuroblastoma) = tested on: NB7 (Neuroblastoma)
Outline: as §1

[6] = tested on: KINGS-1 (Low Grade Glioma)
Outline: as §1

[7] = tested on: OCUB-M (Breast Carcinoma)
Outline: as §1

EW-18 (Ewing's Sarcoma) = tested on: EW-18 (Ewing's Sarcoma)
Outline: as §1

[8] = tested on: OVISE (Ovarian Carcinoma)
Outline: as §1

[9] = tested on: MFE-319 (Endometrial Carcinoma)
Outline: as §1

A704 (Kidney Carcinoma) = tested on: A704 (Kidney Carcinoma)
Outline: as §1

Row | SMILES | combination Emax [1] | combination Emax (RPMI-7951 (Melanoma)) | combination Emax [2] | combination Emax [3] | combination Emax [4] | combination Emax (BT-20 (Breast Carcinoma)) | combination Emax [5] | combination Emax (NB7 (Neuroblastoma)) | combination Emax [6] | combination Emax [7] | combination Emax (EW-18 (Ewing's Sarcoma)) | combination Emax [8] | combination Emax [9] | combination Emax (A704 (Kidney Carcinoma))
1 | CC(=O)c1c(C)c2cnc(Nc3ccc(N4CCNCC4)cn3)nc2n(C2CCCC2)c1=O [Palbociclib] + CC1(C)CCC(CN2CCN(c3ccc(C(=O)NS(=O)(=O)c4ccc(NCC5CCOCC5)c([N+](=O)[O-])c4)c(Oc4cnc5[nH]ccc5c4)c3)CC2)=C(c2ccc(Cl)cc2)C1 [Venetoclax] (first compound max 10 µM, 7x7, partner max 1 µM) | 0.0998 | 0.431 | 0.378 | 0.848 | 0.194 | 0.0933 | 0.13 | 0.191 | 0.206 | 0.0811 | 0.656 | 0.104 | 0.172 | 0.625
2 | CS(=O)(=O)CCNCc1ccc(-c2ccc3ncnc(Nc4ccc(OCc5cccc(F)c5)c(Cl)c4)c3c2)o1 [Lapatinib] + C[C@@H](Oc1cc(-c2cnn(C3CCNCC3)c2)cnc1N)c1c(Cl)ccc(F)c1Cl [Crizotinib] (first compound max 10 µM, 7x7, partner max 10 µM) | 0.193 | 0.975 | 0.999 | 0.94 | 0.675 | 0.652 | 0.964 | 0.565 | 0.921 | 0.697 | 0.951 | 0.888 | 0.511 | 0.905
3 | CN(CCO)CC[C@H](CSc1ccccc1)Nc1ccc(S(=O)(=O)NC(=O)c2ccc(N3CCC([C@@H](O)c4ccccc4-c4ccc(Cl)cc4)CC3)cc2)cc1S(=O)(=O)C(F)(F)F [AZD4320] + Cn1cnc2c(F)c(Nc3ccc(Br)cc3Cl)c(C(=O)NOCCO)cc21 [Selumetinib] (first compound max 1 µM, 7x7, partner max 3 µM) | 0.572 | 0.526 | 0.546 | 0.963 | 0.944 | 0.746 | 0.67 | 0.507 | 0.481 | 0.797 | 0.881 | 0.786 | 0.522 | 0.642
4 | CCN(CCO)CCCOc1ccc2c(Nc3cc(CC(=O)Nc4cccc(F)c4)[nH]n3)ncnc2c1 [AZD2811] + C=CCn1c(=O)c2cnc(Nc3ccc(N4CCN(C)CC4)cc3)nc2n1-c1cccc(C(C)(C)O)n1 [AZD1775] (first compound max 1 µM, partner max 1 µM) | 0.128 | 0.697 | 0.923 | 0.987 | 0.151 | 0.455 | 0.172 | 0.662 | 0.276 | 0.779 | 0.635 | 0.571 | 0.578 | 0.392
5 | COc1nnc2ccc(N3CCC(c4ccc(OCCN5CCN(C)C(=O)[C@H]5C)cc4)CC3)nn12 [AZD5153] + C=CCn1c(=O)c2cnc(Nc3ccc(N4CCN(C)CC4)cc3)nc2n1-c1cccc(C(C)(C)O)n1 [AZD1775] (first compound max 1 µM, partner max 1 µM) | 0.429 | 0.802 | 0.9 | 0.931 | 0.546 | 0.471 | 0.518 | 0.587 | 0.251 | 0.572 | 0.687 | 0.767 | 0.741 | 0.652
6 | CC1(C)CCC(CN2CCN(c3ccc(C(=O)NS(=O)(=O)c4ccc(NCC5CCOCC5)c([N+](=O)[O-])c4)c(Oc4cnc5[nH]ccc5c4)c3)CC2)=C(c2ccc(Cl)cc2)C1 [Venetoclax] + C=CCn1c(=O)c2cnc(Nc3ccc(N4CCN(C)CC4)cc3)nc2n1-c1cccc(C(C)(C)O)n1 [AZD1775] (first compound max 1 µM, partner max 1 µM) | 0.169 | 0.731 | 0.903 | 0.941 | 0.555 | 0.672 | 0.294 | 0.722 | 0.567 | 0.754 | 0.587 | 0.669 | 0.858 | 0.463
7 | Cc1c2c(nn1C)CSCc1cc(n(C)n1)CSc1cc(c3ccccc3c1)OCCCc1c(C(=O)O)n(C)c3c-2c(Cl)ccc13 [AZD5991] + C1CN(CCC1(C(=O)N[C@@H](CCO)C2=CC=C(C=C2)Cl)N)C3=NC=NC4=C3C=CN4 [Capivasertib] (first compound max 1 µM, 7x7, partner max 3 µM) | 0.203 | 0.986 | 0.487 | 0.927 | 0.576 | 0.867 | 0.231 | 0.609 | 0.242 | 1 | 0.95 | 0.354 | 0.776 | 0.306
8 | Cc1c2c(nn1C)CSCc1cc(n(C)n1)CSc1cc(c3ccccc3c1)OCCCc1c(C(=O)O)n(C)c3c-2c(Cl)ccc13 [AZD5991] + CCN(CCO)CCCOc1ccc2c(Nc3cc(CC(=O)Nc4cccc(F)c4)[nH]n3)ncnc2c1 [AZD2811] (first compound max 1 µM, 7x7, partner max 1 µM) | 0.221 | 0.974 | 0.51 | 0.95 | 0.415 | 0.787 | 0.293 | 0.872 | 0.242 | 1 | 0.919 | 0.376 | 0.603 | 0.177

— the supplement of paper PMC11061612
